Test results taken from patent publication US20190307843A1, “SINGLE DOSE METHODS FOR PREVENTING AND TREATING FUNGAL INFECTIONS” (Cidara Therapeutics, Inc., priority 2016, published 2019).
Where two headings read alike, the source gives them in different places. Starred links: 1 amine or outer side, 2 acyl side, 3 side chain; linkers in the order of their positions; H or OH if unused. Positions of bridges follow the written chain, without caps; N, C: chain ends. Non-standard residues stand in square brackets, D forms with d. Residues, ends and D or L forms follow the SMILES beside them. *: point of attachment. Orn(4R-OH,5R-OCH2CH2NMe3+) = C[N+](C)(C)CCO[C@@H](N[*:3])[C@H](O)C[C@H](N[*:1])C(=O)[*:2]; pTerphenylCO(4''-OnC5H11) = CCCCCOc1ccc(-c2ccc(-c3ccc(C(=O)*)cc3)cc2)cc1; hTyr(3S-OH,4S-OH) = N[C@H](C(=O)O)[C@H](O)[C@@H](O)c1ccc(O)cc1; Pro(3S-OH,4S-Me) = C[C@H]1CN[C@H](C(=O)O)[C@H]1O; Hyp = O=C(O)[C@@H]1C[C@@H](O)CN1

What was measured:
[1] = Protein binding by ultracentrifugation, mouse plasma; assay type: in vitro ADME; conditions: read-out: percent of bound CD101, mean (protein binding) (converted)
Description: Concentrations in plasma ranging from 7 to 60 μg/mL were tested and resulting samples were analyzed by LC-MS/MS.

[2] = test system: aspergillosis; test: Human subject with aspergillosis, single oral dose (Example 4); assay type: in vivo; conditions: single dose of 50 mg-1200 mg acetate salt of CD101, oral formulation
Description: (§1) A human subject is diagnosed with aspergillosis using standard diagnostic procedures. The subject receives treatment with a single dose of 50 mg-1200 mg (e.g., 75±25 mg, 100±25 mg, 150±50 mg, 200±50 mg, 250±50 mg, 300±50 mg, 350±50 mg, 400±50 mg, 450±50 mg, 500±100 mg, 600±100 mg, 700±100 mg, 800±100 mg, 900±50 mg, 1000 mg±100 mg, or 1100±100 mg) of the acetate salt of CD101 administered in an oral formulation (e.g., in a pill, capsule, or liquid formulation). No other antifungal treatment is provided to the subject within one to three weeks before or after administration of the single dose CD101 treatment.

[3] = Monkey SC local tolerability study; assay type: in vivo, cynomolgus monkey
Description: (§2) Previous toxicology studies by the IV route of administration conducted in cynomolgus monkeys have shown CD101 to be safe and well tolerated at up to at least 30 mg/kg, which generates very high systemic exposures upon initial infusion of CD101 into the bloodstream. Therefore, only local tolerability (and PK) of CD101 by SC administration required evaluation. […] Plasma concentrations were then quantified by liquid chromatography with tandem mass spectrometric detection (LC-MS/MS). Bioavailability from SC dosing was calculated by comparing the calculated area under the concentration-time profile (AUC) from SC against the AUC from IV administration of the same dose.
Therefore, a separate study was designed to evaluate the tolerability of a SC dose of CD101 as a highly concentrated solution (100 mg/mL; 30 mg/kg) in two cynomolgus monkeys. […] The drug reaches a maximum concentration within a few hours then remains nearly constant over the course of 10 days.

[4] = test system: Aspergillus fumigatus (ATCC 13073); test: Prophylaxis, neutropenic ICR mouse disseminated aspergillosis model, survival
[5] = test system: C. albicans SC-5314 biofilms; test: Time lapse microscopy of biofilm formation; assay type: cell-based, Candida albicans; conditions: CD101 0.25 μg/ml; 0 h up to 16 h
Description: The effective CD101 concentration obtained from the above experiments was used to monitor its effect on biofilm formation in real time using TLM, which involves capturing real-time images of a single frame at specific time intervals, allowing temporal monitoring of the interactions occurring between the drug and Candida biofilms. Captured images were combined in a time sequence, resulting in an animation depicting the sequence of events that occurred with the passage of time. Briefly, the discs with C. albicans (adhered for 90 min as above) were placed in a 35-mm-diameter glass-bottom Petri dish (MatTek Corp., Ashland, Mass.). […] Phase contrast images for this interaction were captured immediately from 0 h and followed up to 16-17 h on a Leica DMI 6000 B inverted microscope connected to a Retiga EXi Aqua camera (Q-imaging Vancouver British Columbia). To determine the structural changes in the maturing biofilm, both acquisition and analysis of a series of horizontal (xy) optical sections of the biofilm was done using Metamorph Imaging software (Molecular Devices, Downington, Pa.). Disc incubated with media alone was used as control.

[6] = Previous toxicology studies by the IV route; assay type: in vivo, cynomolgus monkey
Description: as §2

[7] = test system: invasive candidiasis; test: Human subject with invasive candidiasis, single subcutaneous dose (Example 3); assay type: in vivo; conditions: single dose of 50-1200 mg acetate salt of CD101, subcutaneous injection
Description: as §1, with “invasive candidiasis” for “aspergillosis”, “50-1200” for “50 mg-1200”, “by subcutaneous injection.” for “in an oral formulation (e.g., in a pill, capsule, or liquid formulation).”

[8] = test system: Candida albicans ATCC SC5314; test: MIC used for free drug plasma concentration over MIC, candidiasis model; assay type: cell-based
[9] = test system: candidemia; test: Human subject with candidemia, single intravenous dose (Example 2); assay type: in vivo; conditions: single dose of 50-800 mg acetate salt of CD101, intravenous infusion
Description: as §1, with “candidemia” for “aspergillosis”, “50-800” for “50 mg-1200”, “by intravenous infusion.” for “in an oral formulation (e.g., in a pill, capsule, or liquid formulation).”

[10] = Pharmacokinetics in healthy human adults (Phase 1); assay type: in vivo; conditions: for AUC: human, plasma, free drug, read-out: average 24 h AUC over a 7 day period
Description: The in vitro activity of CD101 was previously evaluated as part of the SENTRY international surveillance program using CLSI broth microdilution methodology (M38-A2, M27-A3; Pfaller, et al 2017). […] These susceptibility data were then compared graphically to CD101 plasma concentrations from studies in healthy adults, adjusted for plasma protein binding. Nonclinical efficacy in a murine model of Pneumocystis pneumonia were also considered to evaluate CD101 doses for clinical investigation of antifungal prophylaxis.

For `CCCCCOc1ccc(-c2ccc(-c3ccc(C(=O)N[C@H]4C[C@@H](O)[C@@H](OCC[N+](C)(C)C)NC(=O)[C@@H]5[C@@H](O)[C@@H](C)CN5C(=O)[C@H]([C@@H](C)O)NC(=O)[C@H]([C@H](O)[C@@H](O)c5ccc(O)cc5)NC(=O)[C@@H]5C[C@@H](O)CN5C(=O)[C@H]([C@@H](C)O)NC4=O)cc3)cc2)cc1` [CD101] ({pTerphenylCO(4''-OnC5H11)}-[Orn(4R-OH,5R-OCH2CH2NMe3+)]T[Hyp][hTyr(3S-OH,4S-OH)]T[Pro(3S-OH,4S-Me)]; lactam 1-C), the fraction unbound at 2.5 hr [1] was 0.008, the “aspergillosis infection at follow-up visit” value [2] was “confirmed to be resolved” and the “irritation or local (injection site) adverse toxicity” value ([3]; single 30 mg/kg SC (100 mg/mL)) was “no sign of irritation or local (injection site) adverse toxicity”. The “bodyweight or food consumption” value ([3]; single 30 mg/kg SC, 10 days after administration) was “no effect on bodyweight or food consumption”, the survival ([4]; CD101 SC 5 mg/kg, 14 days) was “increased survival when prophylaxis was given closer to challenge” and the “symptoms of infection (body weight, hunched posture, ruffled fur, immobility, hypothermia)” value ([4]; CD101 SC 5, 10 and 20 mg/kg on Day −5, −3 and −1) was “improved”. The survival ([4]; CD101 SC 10 and 20 mg/kg, any prophylactic treatment day, 14 days) was “All animals in the 10 and 20 mg/kg groups survived”, the 14-day survival ([4]; CD101 at 5 mg/kg SC administered one hour after infection) was “significant increase in the 14-day survival” and the survival ([4]; prophylaxis, Doses 0 mg/kg) was 100%. For the same compound, the survival ([4]; prophylaxis, single 5 mg/kg dose given up to 5 days prior to infection) was “improved survival depending on day given”, the “biofilm formation in real time” value [5] was “only adhered cells with stunted growth, which failed to grow into mature biofilms” and the “dose safe and well tolerated” value [6] was “at least 30 mg/kg”. The “invasive candidiasis infection at follow-up visit” value [7] was “confirmed to be resolved”, the MIC [8] was 0.03 µg/mL and the “candidemia infection at follow-up visit” value [9] was “confirmed to be resolved”. For the same compound, the “free drug AUC0-168” value ([10]; 200 mg dose) was 15.4 mg·h/L, the “free drug AUC0-168” value ([10]; 400 mg dose) was 30.2 mg·h/L and the “time plasma concentrations above the MEC90 for A. fumigatus” value ([10]; both 400 mg and 200 mg) was 7 days. For the same compound, the AUC ([10]; 200 mg dose) was roughly 2200 ng·h/mL, the AUC ([10]; 400 mg dose) was roughly 4300 ng·h/mL and the “mean unbound plasma concentrations relative to MIC90 for C. albicans” value ([10]; single dose of 400 mg, Phase 1 subjects) was “above the MIC90 for C. albicans for seven days”.
